This note sets out measurements from patent US8383608B2, “Imidazolidine compounds as androgen receptor modulators” (Dart Therapeutics LLC, priority 2008, dated 2013).

As a reminder, the bioavailability is dose-corrected exposure relative to a reference, in per cent. As a reminder, the EC50 is the concentration needed to bring the measured effect to its halfway point.

Molecules are shown by their SMILES.

Data set [1] can be described thus: Determination of absolute bioavailability (restricted PK profile, oral and intravenous). It is filed as in vivo. The following applies: male, Sprague-Dawley, rat, plasma, po, 10 mg/kg, absolute bioavailability (F), male Sprague Dawley rats, oral 10 mg/kg AUC(0-6 h) vs intravenous 3 mg/kg AUC(0-3 h); read-out: Bioavailability. Here is the method:
To screen rapidly imidazolidines derivatives based on their absolute bioavailabity, restricted pharmacokinetic profile with only fours sampling time points after oral and intravenous route is investigated in Sprague Dawley rats as follows: each test compound is dosed orally (10 mg/kg) and intravenously (3 mg/kg) to groups of 3 male Sprague Dawley rats. Oral doses are administered as solution in EtOH/PEG400/H2O (1/79/20; v/v) by esophageal gavage (2 mg/mL; 5 mL/kg) and intravenous dose is given as solution in DMSO/PEG400/H2O (1/65/34; v/v) as a bolus in the tail vein (3 mg/mL; 1 mL/kg). Before oral dosing, animals are deprived of food (water ad libitum) for at least 16 hours before the start of the study and 6 hours after administration.
Blood is collected at the retro-orbital sinus into polypropylene tubes (Li-heparinate) at +4° C. at the following sampling-times: 0.083, 0.25, 1 and 3 h after intravenous injection and 0.25, 1, 3 and 6 hours after oral dosing. Three (3) animals are sampled per time-point; each animal being sampled four times. After centrifugation at 5000 rpm for 10 min at +4° C., plasma is collected into polypropylene tubes and kept frozen at −20° C. pending assays. Plasma samples are assayed by a LC-MS/MS method with a lower limit of quantification of 1 to 10 ng/mL depending on the compound (volume of plasma: 100 μL).
A LC-MS/MS method for quantification in heparinized plasma was developed for each test compound. Sample preparation consists of a precipitation of plasma proteins with methanol and filtration by centrifugation of supernatant on Captiva deep-well 96 0.2 μm filter plates. Water was added to methanol supernatant phase prior to analysis by liquid chromatography (Pursuit 5 C18 20×2.0 mm VARIAN, 2 μL loop, gradient Water/Methanol (90/10 to 0/100) over 1.7 min) with turboionspray tandem mass spectrometry (API4000) in negative mode using multiple reaction monitoring. The method includes 8 standard and 3 quality control levels with lower limit of quantification corresponding to first standard level.
Exposures are determined using a non compartmental model (WinNonLin 2.1) and the absolute bioavailability (F) is calculated as follows: [AUC(0-6 h) oral*3 mg/kg]/AUC(0-3 h) IV 10 mg/kg] and expressed in percentage.

The target of data set [2] is T1, human androgen receptor (hAR) (Homo sapiens, UniProt P10275).
T1 construct: expressed in transfected cells
T1 sequence (P10275 1-920): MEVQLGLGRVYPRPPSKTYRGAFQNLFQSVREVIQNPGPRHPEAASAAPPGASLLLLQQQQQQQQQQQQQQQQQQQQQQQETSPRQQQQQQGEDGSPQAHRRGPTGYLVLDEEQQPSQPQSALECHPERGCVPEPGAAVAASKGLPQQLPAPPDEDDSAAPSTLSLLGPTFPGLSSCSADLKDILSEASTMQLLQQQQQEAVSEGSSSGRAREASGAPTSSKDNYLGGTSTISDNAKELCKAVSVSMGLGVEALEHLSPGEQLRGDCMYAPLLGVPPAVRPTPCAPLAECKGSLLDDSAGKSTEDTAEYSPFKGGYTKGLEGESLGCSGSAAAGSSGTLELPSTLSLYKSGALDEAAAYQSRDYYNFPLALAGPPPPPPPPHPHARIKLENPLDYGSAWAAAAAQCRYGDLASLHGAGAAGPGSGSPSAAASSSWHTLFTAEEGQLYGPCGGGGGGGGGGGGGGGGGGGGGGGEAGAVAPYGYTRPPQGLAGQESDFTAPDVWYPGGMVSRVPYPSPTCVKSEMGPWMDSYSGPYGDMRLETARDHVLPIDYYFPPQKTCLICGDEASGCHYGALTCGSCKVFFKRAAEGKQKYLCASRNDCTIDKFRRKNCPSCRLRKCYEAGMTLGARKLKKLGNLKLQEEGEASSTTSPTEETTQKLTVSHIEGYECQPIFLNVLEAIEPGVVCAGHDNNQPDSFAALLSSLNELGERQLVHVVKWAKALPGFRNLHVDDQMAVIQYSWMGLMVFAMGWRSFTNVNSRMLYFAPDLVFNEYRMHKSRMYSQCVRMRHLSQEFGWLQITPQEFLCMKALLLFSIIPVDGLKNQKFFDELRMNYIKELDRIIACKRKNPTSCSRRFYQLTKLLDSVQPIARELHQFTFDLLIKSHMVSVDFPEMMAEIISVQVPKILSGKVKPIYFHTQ
As to the kind of experiment: Functional response (transactivation) test in HALP2 cells (HeLa stably expressing hAR and ARE-luciferase reporter). The settings on record: HALP2 cells; for Emax: HeLa, maximal activation by the compound compared with DHT alone (100%), read-out: % effect relative to DHT (100%); for EC50: agonism: concentration inducing 50% of the maximum agonistic effect of the tested compound, 24 hours, read-out: EC50. It is filed as cell-based.

For `CN1C(=O)N(c2ccc(C#N)c(C(F)(F)F)c2)C(=O)[C@@]1(CO)c1ccccc1` [Example 10, (S)-4-[2,5-Dioxo-4-(hydroxymethyl)-3-methyl-4-phenylimidazolidin-1-yl]-2-trifluoromethylbenzonitrile], the bioavailability in data set [1] is more than 90%. In addition, in data set [2], the Emax fell in the range of 21 to 40% and the EC50 is 11 to 100 nM.

On to `CN1C(=O)N(c2ccc(C#N)c(C(F)(F)F)c2)C(=O)C1(CO)c1ccc(Cl)cc1` (stereo not drawn) [Example 7, 4-[4-(4-Chlorophenyl)-2,5-dioxo-4-hydroxymethyl-3-methyl-imidazolidin-1-yl)-2-trifluoromethylbenzonitrile], for which the bioavailability in data set [1] is more than 90%. In data set [2], the Emax lay in the range of 21 to 40% and the EC50 lay within 101 to 500 nM.

Take `CCN1C(=O)N(c2ccc(C#N)c(C(F)(F)F)c2)C(=O)C1(CO)c1ccccc1` (stereo not drawn) [Example 12, 4-[2,5-Dioxo-3-ethyl-4-(hydroxymethyl)-4-phenylimidazolidin-1-yl]-2-trifluoromethylbenzonitrile]: the bioavailability in data set [1] fell in the range of 50 to 90%. Also, in data set [2], the Emax is 21 to 40% and the EC50 was in the range of 0.01 to 10 nM.
